In US9487510B2, “Substituted heterocyclic acetamides as kappa opioid receptor (KOR) agonists” (Dr. Reddy's Laboratories Ltd., priority 2012, dated 2016):

Assays:
human KOR receptor = human KOR receptor (Homo sapiens, UniProt P41145); assay: IP-One HTRF assay, potency of KOR agonists, dose-response in transiently transfected COS-7 cells; assay type: cell-based
Sequence of human KOR receptor (P41145 whole entry): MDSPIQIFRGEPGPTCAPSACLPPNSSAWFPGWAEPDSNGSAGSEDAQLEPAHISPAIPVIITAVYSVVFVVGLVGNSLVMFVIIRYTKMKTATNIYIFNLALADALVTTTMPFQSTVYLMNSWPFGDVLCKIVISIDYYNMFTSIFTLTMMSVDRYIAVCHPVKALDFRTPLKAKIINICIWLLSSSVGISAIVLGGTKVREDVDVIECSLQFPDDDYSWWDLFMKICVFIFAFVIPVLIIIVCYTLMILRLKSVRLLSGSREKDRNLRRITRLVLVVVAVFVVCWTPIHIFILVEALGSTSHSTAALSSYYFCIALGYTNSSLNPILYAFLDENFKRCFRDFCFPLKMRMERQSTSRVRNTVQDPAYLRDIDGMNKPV

SMILES: O=C(Cc1ccc2oc(=O)n(Cc3ccc(-c4nnn[nH]4)cc3)c2c1)N[C@H](CN1CC[C@H](O)C1)c1ccccc1 [Example 106, 2-(3-(4-(1H-tetrazol-5-yl)benzyl)-2-oxo-2,3-dihydrobenzo[d]oxazol-5-yl)-N-((S)-2-((S)-3-hydroxypyrrolidin-1-yl)-1-phenylethyl)acetamide]
- melting point: 296 to 297 °C
- EC50 (human KOR receptor): ≤ 50 nM

SMILES: CN(C(=O)Cc1ccc2oc(=O)[nH]c2c1)[C@H](CN1CC[C@H](F)C1)c1cccc(-c2nn[nH]n2)c1 [Example 109, N-((S)-1-(3-(2H-tetrazol-5-yl)phenyl)-2-((S)-3-fluoropyrrolidin-1-yl)ethyl)-N-methyl-2-(2-oxo-2,3-dihydrobenzo[d]oxazol-5-yl)acetamide]
- melting point: 133 to 134 °C
- EC50 (human KOR receptor): ≤ 50 nM

SMILES: CN(C(=O)Cc1ccc2c(c1)NC(=O)C2)[C@H](CN1CC[C@H](O)C1)c1cccc(-c2nn[nH]n2)c1 [Example 110, N-((S)-1-(3-(2H-tetrazol-5-yl)phenyl)-2-((S)-3-hydroxypyrrolidin-1-yl)ethyl)-N-methyl-2-(2-oxoindolin-6-yl)acetamide]
- melting point: 208 to 210 °C
- EC50 (human KOR receptor): ≤ 50 nM

SMILES: CN(C(=O)Cc1ccc2c(c1)NC(=O)C2)[C@H](CN1CC[C@H](F)C1)c1cccc(-c2nn[nH]n2)c1 [Example 113, N-((S)-1-(3-(2H-tetrazol-5-yl)phenyl)-2-((S)-3-fluoropyrrolidin-1-yl)ethyl)-N-methyl-2-(2-oxoindolin-6-yl)acetamide]
- melting point: 175 to 177 °C
- EC50 (human KOR receptor): ≤ 50 nM

SMILES: CN(C(=O)Cc1ccc2c(c1)NS(=O)(=O)C2)[C@H](CN1CC[C@H](O)C1)c1ccccc1 [Example 136, 2-(2,2-dioxido-1,3-dihydrobenzo[c]isothiazol-6-yl)-N-((S)-2-((S)-3-hydroxypyrrolidin-1-yl)-1-phenylethyl)-N-methylacetamide]
- melting point: 232 to 234 °C
- EC50 (human KOR receptor): ≤ 50 nM
